For the assay, the system named is NVHL rats. Kind of assay: Mismatch negativity (MMN), auditory evoked potentials, NVHL rats. The assay is classed as in vivo, Sprague-Dawley rats. The following applies: juvenile treatment. The procedure:
Abnormal excitation-inhibition balance in adult NVHL rats can yield altered information processing that would be prevented by NAC treatment if it depended on oxidative stress. Mismatch negativity (MMN) was tested using auditory evoked potentials in an oddball paradigm in SHAM (n=6), NVHL (n=3), and NAC-treated NVHL rats (n=3). MMN has high translational relevance, as it is attenuated in schizophrenia patients (Javitt et al., 1993) and in animal models (Ehrlichman et al., 2009). Electroencephalographic (EEG) electrodes were implanted in NVHL, NAC-treated NVHL, and SHAM rats. This observation is consistent with the effect of NAC on MMN in patients (Lavoie et al., 2008), and indicates the NVHL model reproduces an important disease marker that can be prevented by juvenile antioxidant treatment. As MMN depends on NMDA receptor function (Umbricht et al., 2000) and NMDA hypofunction in PVI is suspected in schizophrenia, it is possible that MMN improvement with NAC results from restored PVI activity. […]
Mismatch Negativity: NVHL, NAC-treated NVHL, and sham female rats were implanted with chronic EEG electrodes under isoflurane anesthesia. […] A difference wave was constructed by subtracting the standard wave from the deviant wave, and MMN was quantified by measuring the area under the curve in the period between 35 and 100 ms after the stimulus. […]

As to `CC(=O)N[C@@H](CS)C(=O)O` [NAC, N-acetyl cysteine], the “effect on MMN deficit” value is on record as “improving”.
